# Test system: soybeans
# Assay: Soybean field trial, Wilkin County, Minnesota (NKS06-H5 seed)
# Assay type: in vivo
# Experimental: To test the efficacy of using a sugar based fertilizer composition with soybeans, field trials using Northrup-King NKS06-H5 soybean seed were conducted in Wilkin County, Minnesota. A total of six (6) treatments were conducted. Each treatment was replicated four times arranged in a Randomized Complete Block (RCB) Design in the same field. Each replication consisted of a plot having a width of six (6) rows with twenty two (22) inch row spacing having a row length of twenty five (25) feet. To reduce/eliminate any treatment impacts between adjacent plots, only the four (4) interior rows of each plot were treated and evaluated. With the exception of the treatment program applied to the individual plots, which will be discussed below, conventional commercial growing practices were otherwise followed during the field trials. The individual plots experienced the same growing conditions throughout the season.
# The treatment regimen for the soybeans included one (1) untreated treatment in which no sugar was applied and was used as the control element. One (1) treatment included treatment with Sun Energy Foliar Fertilizer (SE). […] SE was supplied in liquid form and applied by spraying while GS was supplied in a conventional solid form and applied via broadcast spreading. SE is for foliar application and was applied according to the labeling instructions on post-emergent (Post) soybean plants at both the Vegetative Fourth Trifoliolate (V4) and Reproductive Beginning Flowering (R1) stages. GS was applied at a variety of times, both pre-planting (Pre) and on post-emergent (Post) soybean plants at either or the V4 or R1 stages. When applied during pre-planting (Pre), the GS was spread directly on the soil before spring tillage, lightly worked into the ground and followed by planting of the soybean seed into the treated ground. A summary of the plot treatments is contained in Table 4 below:
# Following a conventional growing season, the middle four rows of each plot were harvested and data collected for overall yield (bushels of soybeans/Acre), protein dry basis (%) and oil dry basis (%). Fisher's Exact LSD was the statistical test of choice for mean separation for the individual plots of each treatment. A summary of the soybean harvest data is contained in Table 5 below: […]
# [1] = Replication 3: 100 pounds/Acre Pre + 3 pounds/Acre Post (V4)
# [2] = Replication 4: 3 pounds/Acre Post (R1)
# [3] = Replication 5: 5 pounds/Acre Post (R1)
# [4] = Replication 6: 100 pounds/Acre Pre + 5 pounds/Acre Post (V4)
structure (smiles),measurement,setting,value
"OC[C@H]1O[C@@](CO)(O[C@H]2O[C@H](CO)[C@@H](O)[C@H](O)[C@H]2O)[C@@H](O)[C@@H]1O [GS, sucrose]",side-by-side visual comparison of soybean plants with untreated check,"GS 100 pounds/acre prior to planting, 40 and 60 days after planting (FIGS. 7-9)",larger more robust soybean plants
same,Bushels of Soybeans/Acre,[1],52.92 bushels/Acre
same,Yield Increase (Treatment Bushels of Soybeans/Acre)/(Check Bushels of Soybeans/Acre),[1],31.84%
same,Bushels of Soybeans/Acre,[2],35.56 bushels/Acre
same,Yield Increase (Treatment Bushels of Soybeans/Acre)/(Check Bushels of Soybeans/Acre),[2],−11.41%
same,Bushels of Soybeans/Acre,[3],40.14 bushels/Acre
same,Yield Increase (Treatment Bushels of Soybeans/Acre)/(Check Bushels of Soybeans/Acre),[3],0.00%
same,Bushels of Soybeans/Acre,[4],45.28 bushels/Acre
same,Yield Increase (Treatment Bushels of Soybeans/Acre)/(Check Bushels of Soybeans/Acre),[4],12.81%
same,yield increase as compared to the untreated check,every pre-planting (Pre) application of GS,at least 12.8%
same,yield data,only post-emergent application of GS,inconclusive
